Measurements from US20250136932A1, “COMPOSITIONS AND METHODS FOR CULTURING AND MAINTAINING TROPHOBLAST STEM CELLS” (NORTH CAROLINA STATE UNIVERSITY, priority 2022, published 2025).

Legend:
[1] = system: CDX2+ hTSCs from CTBs from term placentas; experiment: Derivation and support of CDX2+ hTSCs from term placental CTBs; format: cell-based, human; settings: component added to or exchanged in TSCM
Protocol: Differentiation of term CTBs to hTSCs. Term CTBs that were previously frozen were thawed directly into DTM7 medium, or TSCMUA medium (see, e.g., Table 1). To assess DTME medium, cells cultured in TSCMUA were passaged into DTME.
Culture of hTSCs. hTSCs were cultured in 2 ml of DTM7 at 37 C in 5% CO2. Culture medium was replaced every 2 days. When hTSCs reached 70-90% confluence, they were dissociated with TrypLE at 37° C. for 5-10 minutes and passaged to a new 6-well plate pre-coated with 3 μg/ml of vitronectin and 1 μg/ml of Laminin 521 at a 1:3-1:4 split ratio and were supplemented with Y-27632 upon passage to aid in single cell attachment. Cells were routinely passaged approximately every 4-6 days. hTSCs at passages 2+ (typically passage 5+) were used for analysis.
hTSC cell culture. hTSCs were cultured as previously described by Okae et al. with minor modifications. Additionally, similar protocols were used for the TSCMUA, DMT7, and DTME media described further herein. […]

CTB21126R+ term hTSCs = experiment: Immunofluorescence marker expression in term CTB-derived hTSCs; format: cell-based, human; settings: term hTSCs switched from TSCM+UK5099+AlbuMAX to TSCM
Protocol: Immunofluorescence analysis. For immunofluorescence analysis, cells were grown on glass-bottom culture dishes coated with 3 μg/ml vitronectin and 1 μg/ml of Laminin 521. Cells were fixed either using 4% paraformaldehyde in PBS for 10 min, permeabilized with 0.5% Triton X-100 for 5 min and blocked in 3% BSA/PBS with 0.1% human IgG and 0.3% Triton X-100 for 1 hr. Cells were then incubated overnight with the primary antibody diluted in blocking buffer. The following primary antibodies were used: anti-KRT7 (SCB, 1:50), anti-KRT7 (CST, 1:500), rabbit anti-hCG (1:100), mouse anti-hCG (1:100), anti-YAP (1:200), anti-TFAP2C (1:400), anti-P63 (1:600), anti-GATA3 (1:500), anti-TEAD4 (1:250), anti-CDX2 (1:300), anti-VE-Cadherin (1:400), anti-HLA-G (1:300), anti-syncytin (1:50). Corresponding isotype controls (rabbit polyclonal IgG, rabbit XP IgG, mouse IgG1, and mouse IgG2a) were used at primary antibody concentrations. Alexa Fluor 488- or Alexa Fluor 647-conjugated secondary antibodies were used as secondary antibodies. Nuclei were stained with DAPI and all samples were imaged using a Zeiss LSM 710 or 880 laser scanning confocal microscope (Carl Zeiss, Germany).
Immunostaining. For immunofluorescence analysis, 3×10^4 cells were grown on 24-well glass bottom plates coated with 3 μg/ml of vitronectin and 1 μg/ml of Laminin 521. […]

Compound	Role of component in hTSC derivation from term CTB [1]	Role of component in CDX2 expression (CTB21126R+ term hTSCs)
N#CC(=Cc1cn(-c2ccccc2)c2ccccc12)C(=O)O [UK5099, α-cyano-β-(1-phenylindol-3-yl)-acrylate]	necessary	important for CDX2 expression
lysophosphatidic acid [LPA]	cannot replace AlbuMAX	–
